Results reported in ChEMBL document CHEMBL5375956, “Discovery of Pyrazolo[1,5-a]pyrimidine Derivative as a Novel and Selective ALKBH5 Inhibitor for the Treatment of AML” (J Med Chem, 2023).
Activity calls are given as the source filed them. The rule behind the calls is not given here.

Tests used:
[1] = molecular target: RNA demethylase ALKBH5 (Homo sapiens, UniProt Q6P6C2); assay: Inhibition of ALKBH5 (66 to 292 residues)(unknown origin) expressed in Escherichia coli BL21(DE3) using 5'-TAGACATTGCCATTCTCGATAGG (m6A)-TC CGGTCAAACCTAGAC GAATTCCA-3' as substrate incubated for 2 hrs by restriction endonuclease digestion assay; conditions: dose 25-200 µM
[2] = system: MV4-11; assay: Antitumor activity against human MV4-11 cells xenografted in nude mouse assessed as reduction in tumor weight at 10 to 40 mg/kg, ip treated every day for 14 days; assay type: functional, organism-based; conditions: dose 10-40 mg/kg, time 14.0 day
[3] = system: MV4-11; assay: Downregulation of TACC3 mRNA level in human MV4-11 cells at 5 to 10 uM incubated for 48 hrs by qRT-PCR analysis; assay type: functional, cell-based; conditions: dose 5-10 µM
[4] = system: HEK293; assay: Effect on c-Myc mRNA level in HEK293 cells at 5 to 10 uM incubated for 48 hrs by qRT-PCR analysis; assay type: functional, cell-based; conditions: Homo sapiens, dose 5-10 µM

Sequence of RNA demethylase ALKBH5 (Q6P6C2 2-394 limits assumed): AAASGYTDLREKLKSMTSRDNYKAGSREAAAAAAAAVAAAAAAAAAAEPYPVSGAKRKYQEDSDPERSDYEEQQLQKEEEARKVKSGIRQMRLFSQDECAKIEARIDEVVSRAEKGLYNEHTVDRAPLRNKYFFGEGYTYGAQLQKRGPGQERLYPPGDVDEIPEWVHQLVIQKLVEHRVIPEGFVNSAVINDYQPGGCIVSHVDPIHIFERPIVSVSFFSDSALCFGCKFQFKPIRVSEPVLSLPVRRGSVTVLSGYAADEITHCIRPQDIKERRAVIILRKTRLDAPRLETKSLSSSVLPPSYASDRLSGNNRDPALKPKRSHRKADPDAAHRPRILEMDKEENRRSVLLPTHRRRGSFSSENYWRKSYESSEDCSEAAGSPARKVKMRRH

O=C(OCc1ccc(C(F)(F)F)cc1)c1ccc(-c2cc3ncc(C(=O)c4c(O)ccc([N+](=O)[O-])c4O)cn3n2)cc1
inhibition [1]: Dose-Dependent Effect | Activity [2]: Active | Activity [3]: Active | Activity [4]: inactive
